The record followed here is US9592260B2, “Cancer therapy with a parvovirus combined with an HDAC inhibitor” (priority 2010, dated 2017).

Series [1] deals with AsPC-1. In words: LDH assay, H-1PV with or without VPA, PDAC cells. Conditions: AsPC-1 (printed AP-1), 72 hours, H-1PV at various MOI, FIG. 7. Here is the method: (§1) APC-1 and Capan-1 cells were plated in 96 wells plates (2000 cells/well). After 16 hours, cell were infected with H-1PV at the indicated MOI and grown in the presence or absence of VPA for additional 72 hours. Cellular lysis was measured by LDH assay.
(§2) Parvovirus cytotoxicity was measured by evaluating the release of lactate dehydrogenase in the medium using the CytoTox 96 kit from Promega (Mannheim, Germany). The day before infection, 2000 cells were seeded per well in 96-well plate in 50 μl of culture medium. After 24 hours, cells were infected with 50 μl of serum-free medium containing H-1PV or treated with HDAC inhibitors in 7 replicates per condition. The day of measurement, 3 out of 7 wells were incubated for 30 minutes with lysis buffer to estimate the maximum LDH release under conditions of 100% lysis. Afterwards, the plate was centrifuged and 50 μl of supernatant were mixed with the substrate mix. The LDH enzyme catalyzes a colorimetric reaction that is indicative of the amount of enzyme released in the medium. After 30 minutes, the reaction was stopped and analyzed using the Elisa reader MultiScan at 492 nm.
(§3) Cells were seeded in 96 wells plate and then infected with various concentrations of H-1PV in the presence or absence of the HDACI Valproic acid (VPA).

The test system of series [2] is Capan-1. Description: LDH assay, H-1PV with or without VPA, PDAC cells. To be noted: 72 hours, H-1PV at various MOI, FIG. 7. Here is the method: as §1, §2, §3
Series [3] deals with HeLa established tumors. In kind it is in vivo, nude rat. Conditions: VPA 100 mg/kg; compared with mock-treated controls. The text has this: Data shown represents the average values with standard deviation bars.
Series [4] deals with cervical carcinoma cell cultures (HeLa, CaSki, SiHa, CxCa). Description: LDH assay, H-1PV with or without HDACI, statements over all cervical cultures. Type of series: cell-based, human. Conditions: VPA 1 mM, 72 h, FIG. 5. Here is the method:
Cervical cancer derived cell lines (HeLa, CaSki, SiHa) and non-established cervical cancer cell cultures (CxCa) were infected with H-1PV at the indicated MOIs (pfu/cell) and grown for 72 h in the presence (grey bars) or absence (white bars) of VPA (1 mM). After incubation, cell lysis was evaluated by measuring the release of lactate dehydrogenase (LDH). Hatched bars at the right hand side of each chart show the minimal dose of H-1PV able to kill 90-100% of the cancer cells as monotherapy.
The sub-lethal dose of VPA boosted parvovirus-induced cell killing in a synergistic manner, increasing by up to 50-100%. […] Similar results were also obtained combining H-1PV with NaB, TSA or SaHa (Table 2).

Structures are written as SMILES.

As to `CCCC(CCC)C(=O)O` [VPA, valproic acid], the “cell lysis / cytotoxicity (LDH assay)” value in series [1] and in series [2] was “no effect” throughout. Besides, the tumour growth result in series [3] is reported as “failed to impair tumour growth”. In addition, in series [4], the “effect on cellular growth when applied singly” value was “did not have any significant effect”.
